Results from paper PMC9916866 (International Journal of Molecular Sciences, 2023).
Where two headings read alike, the source gives them in different places. Positions of bridges follow the written chain, without caps; N, C: chain ends. Residues, ends and D or L forms follow the SMILES beside them.

What was measured:
[1] = target: T1, AT1 receptor (Homo sapiens, UniProt P30556); assay: cell-based; assay type: cell-based; parameters: expressed in transfected cells; host or cells: HEK293T
T1 sequence (P30556 1-359): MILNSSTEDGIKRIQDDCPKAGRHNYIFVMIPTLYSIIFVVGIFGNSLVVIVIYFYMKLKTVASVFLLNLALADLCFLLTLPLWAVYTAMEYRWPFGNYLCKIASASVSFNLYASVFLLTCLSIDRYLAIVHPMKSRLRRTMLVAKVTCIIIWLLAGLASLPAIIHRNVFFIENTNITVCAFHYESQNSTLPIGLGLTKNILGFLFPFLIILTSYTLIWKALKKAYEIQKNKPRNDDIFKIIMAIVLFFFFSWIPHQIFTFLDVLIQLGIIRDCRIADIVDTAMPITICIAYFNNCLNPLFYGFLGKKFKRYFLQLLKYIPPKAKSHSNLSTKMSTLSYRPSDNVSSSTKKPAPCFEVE

[2] = target: T2, AT1 receptor (Rattus norvegicus, UniProt P25095); assay: biochemical; assay type: binding; settings: read-out: inhibition of the specific labelling by Cy5-AngII, AT1
T2 sequence (P25095 whole entry, looked up): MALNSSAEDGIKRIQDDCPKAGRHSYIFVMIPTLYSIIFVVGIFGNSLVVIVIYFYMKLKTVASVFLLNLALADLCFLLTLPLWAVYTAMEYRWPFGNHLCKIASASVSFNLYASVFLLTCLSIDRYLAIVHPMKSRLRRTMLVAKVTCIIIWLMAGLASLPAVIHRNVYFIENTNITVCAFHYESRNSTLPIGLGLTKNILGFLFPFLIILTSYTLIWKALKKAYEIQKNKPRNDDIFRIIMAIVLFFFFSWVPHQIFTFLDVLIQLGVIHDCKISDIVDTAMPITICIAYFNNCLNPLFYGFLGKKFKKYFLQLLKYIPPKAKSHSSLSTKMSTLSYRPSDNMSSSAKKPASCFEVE

[3] = target: T2, AT1 receptor; assay: cell-based
[4] = target: T1, AT1 receptor; assay: biochemical; assay type: binding; parameters: expressed in transfected cells; host or cells: HEK293T
[5] = target: T3, human AT2 receptor (Homo sapiens, UniProt P50052); assay: biochemical; assay type: binding
T3 construct: expressed in transfected cells; host or cells: HEK293T
T3 sequence (P50052 1-363): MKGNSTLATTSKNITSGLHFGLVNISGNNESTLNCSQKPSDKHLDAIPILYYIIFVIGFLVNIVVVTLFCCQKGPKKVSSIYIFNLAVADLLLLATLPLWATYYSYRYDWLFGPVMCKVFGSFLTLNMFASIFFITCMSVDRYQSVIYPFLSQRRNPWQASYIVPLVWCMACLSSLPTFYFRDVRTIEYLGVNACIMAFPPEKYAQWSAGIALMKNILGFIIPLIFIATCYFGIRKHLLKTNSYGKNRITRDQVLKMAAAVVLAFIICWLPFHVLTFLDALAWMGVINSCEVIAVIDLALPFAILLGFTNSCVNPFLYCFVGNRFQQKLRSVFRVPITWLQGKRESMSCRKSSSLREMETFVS

[6] = target: T2, AT1 receptor; assay: cell-based; settings: read-out: inhibition of AngII-induced ERK1/2 phosphorylation (western blot)
[7] = target: T1, AT1 receptor; assay: cell-based

CC(C)[C@@H]1NC(=O)[C@H](Cc2c[nH]c3ccccc23)NC(=O)[C@H](Cc2ccccc2)NC(=O)[C@H](Cc2c[nH]cn2)NC(=O)[C@@H](N)CSSC[C@@H](C(=O)N2CCC[C@H]2C(=O)O)NC1=O [A-CTX-cMila] (H-CHFWVCP-OH; disulfide 1-6) gave an IC50 [1] of 28.5 ± 12 µM, an inhibition at 100 µM [2] of 74% and an IC50 [3] of 23.7 ± 4.6 µM. The Ki [4] was 0.32 ± 0.13 µM, the Ki [5] was 27.5 ± 2.1 µM and the inhibition at 20 µM [6] was 89%. The IC50 [7] was 15.6 ± 3 µM, the Kb ([7]; KB, β-arrestin 2 recruitment) was 4.1 ± 3.1 µM and the Kb ([7]; pA2, β-arrestin 2 recruitment) was 2 µM.
